# Measurements from patent EP3011959A1, “Quaternary ammonium compound for use as an inhibitor of protein kinase C alpha” (Santen SAS, priority 2014, dated 2016).
# Experiments:
# Format in all cases: cell-based
# [1] = target: PKC alpha (Homo sapiens, UniProt P17252); test: Cellular assay of protein kinase C inhibition, PKC alpha; conditions: read-out: IC 50 PKC alpha
# Method: (§1) CKC was tested on a cellular assay to evaluate the protein kinase C inhibition (PKC). Four subtypes of PKC are evaluated (α, β1, β2 and δ). Table 1. Cellular assay to evaluate the action of CKC on four subtypes of PKC.
# [2] = target: PKC beta 2 (Homo sapiens, UniProt P05771); test: Cellular assay of protein kinase C inhibition, PKC beta 2; parameters: key: *: IC 50 too high to be measured by apparatus
# Chain of PKC beta 2 (P05771 1-673 isoform P05771-2): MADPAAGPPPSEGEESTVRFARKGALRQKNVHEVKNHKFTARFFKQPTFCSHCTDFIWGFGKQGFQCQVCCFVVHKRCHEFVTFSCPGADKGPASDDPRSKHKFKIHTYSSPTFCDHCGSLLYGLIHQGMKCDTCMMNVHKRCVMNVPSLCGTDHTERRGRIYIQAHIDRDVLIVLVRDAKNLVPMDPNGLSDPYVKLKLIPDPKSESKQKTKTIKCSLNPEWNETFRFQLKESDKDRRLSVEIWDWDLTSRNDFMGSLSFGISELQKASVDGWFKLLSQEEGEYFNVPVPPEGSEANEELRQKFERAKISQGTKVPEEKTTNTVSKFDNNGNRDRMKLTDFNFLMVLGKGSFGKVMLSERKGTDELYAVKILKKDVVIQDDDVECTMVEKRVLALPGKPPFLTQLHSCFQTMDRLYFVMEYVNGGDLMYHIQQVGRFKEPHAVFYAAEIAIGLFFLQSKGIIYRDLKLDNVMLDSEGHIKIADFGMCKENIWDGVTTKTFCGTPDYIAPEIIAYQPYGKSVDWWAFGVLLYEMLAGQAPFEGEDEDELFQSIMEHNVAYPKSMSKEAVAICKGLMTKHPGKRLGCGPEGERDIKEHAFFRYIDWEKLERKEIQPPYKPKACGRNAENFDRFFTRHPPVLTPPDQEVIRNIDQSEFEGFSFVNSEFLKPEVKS
# Method: as §1
# [3] = target: PKC delta (Homo sapiens, UniProt Q05655); test: Cellular assay of protein kinase C inhibition, PKC delta; parameters: key: *: IC 50 too high to be measured by apparatus
# Chain of PKC delta (Q05655 whole entry): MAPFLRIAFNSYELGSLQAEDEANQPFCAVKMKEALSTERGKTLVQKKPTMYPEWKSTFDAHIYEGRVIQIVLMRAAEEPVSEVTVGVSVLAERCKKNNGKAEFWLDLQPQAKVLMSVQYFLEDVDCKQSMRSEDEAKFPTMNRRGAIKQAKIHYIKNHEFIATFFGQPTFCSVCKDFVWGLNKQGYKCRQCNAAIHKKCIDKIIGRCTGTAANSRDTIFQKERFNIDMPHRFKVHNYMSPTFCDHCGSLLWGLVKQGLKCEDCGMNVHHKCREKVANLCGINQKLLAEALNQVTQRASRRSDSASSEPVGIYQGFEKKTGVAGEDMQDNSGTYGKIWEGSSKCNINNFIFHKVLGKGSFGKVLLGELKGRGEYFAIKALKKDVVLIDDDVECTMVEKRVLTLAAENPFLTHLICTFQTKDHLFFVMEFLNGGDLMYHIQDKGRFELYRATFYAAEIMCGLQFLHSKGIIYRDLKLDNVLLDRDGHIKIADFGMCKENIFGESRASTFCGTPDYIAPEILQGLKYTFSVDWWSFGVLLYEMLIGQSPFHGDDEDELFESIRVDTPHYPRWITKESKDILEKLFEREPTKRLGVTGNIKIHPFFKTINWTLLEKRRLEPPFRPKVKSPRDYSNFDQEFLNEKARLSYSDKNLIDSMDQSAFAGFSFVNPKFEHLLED
# Method: as §1
# [4] = target: PKC beta 1 (Homo sapiens, UniProt P05771); test: Cellular assay of protein kinase C inhibition, PKC beta 1; parameters: key: *: IC 50 too high to be measured by apparatus
# Chain of PKC beta 1 (P05771 whole entry): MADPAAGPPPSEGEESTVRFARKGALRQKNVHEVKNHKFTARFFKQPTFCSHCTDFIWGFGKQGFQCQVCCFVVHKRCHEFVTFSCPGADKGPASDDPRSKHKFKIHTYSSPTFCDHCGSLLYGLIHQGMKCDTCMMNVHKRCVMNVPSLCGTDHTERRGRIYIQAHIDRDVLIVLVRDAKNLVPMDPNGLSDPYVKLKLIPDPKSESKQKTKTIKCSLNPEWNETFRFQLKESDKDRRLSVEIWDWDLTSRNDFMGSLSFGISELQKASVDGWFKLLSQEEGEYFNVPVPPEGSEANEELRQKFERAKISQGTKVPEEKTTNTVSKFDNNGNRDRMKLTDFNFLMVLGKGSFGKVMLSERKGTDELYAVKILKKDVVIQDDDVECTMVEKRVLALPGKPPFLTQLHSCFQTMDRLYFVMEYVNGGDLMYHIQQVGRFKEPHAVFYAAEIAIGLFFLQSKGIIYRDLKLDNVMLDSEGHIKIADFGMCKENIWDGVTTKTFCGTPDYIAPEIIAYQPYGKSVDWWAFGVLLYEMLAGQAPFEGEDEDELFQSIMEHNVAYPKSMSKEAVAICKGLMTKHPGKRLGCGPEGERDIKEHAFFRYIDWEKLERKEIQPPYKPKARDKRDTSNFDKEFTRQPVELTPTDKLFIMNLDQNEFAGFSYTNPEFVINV
# Method: as §1
compound,measurement,setting,value
"CCCCCCCCCCCCCCCC[N+](C)(C)Cc1ccccc1 [CKC, cetalkonium chloride]",IC50,[1],4.29 µM
same,IC 50 PKC beta 2,[2],*
same,IC 50 PKC delta,[3],*
same,IC 50 PKC beta 1,[4],*
